Experimental data published in patent publication US9260429B2, “Pyrido[3,4-B]indoles and methods of use” (Medivation Technologies, Inc., priority 2008, dated 2016).

What was measured:
[1] = biological target: T1, human recombinant histamine H2 receptor (Homo sapiens, UniProt P25021); assay: Histamine H2 radioligand binding ([125I]Aminopotentidine); conditions: 1 μM; inhibition of specific [125I]Aminopotentidine binding; read-out: Binding data (Percentage Inhibition) Histamine Binding (1 μM) H2
T1 construct: expressed in transfected cells; host or cells: CHO-K1 cells
T1 sequence (P25021 whole entry): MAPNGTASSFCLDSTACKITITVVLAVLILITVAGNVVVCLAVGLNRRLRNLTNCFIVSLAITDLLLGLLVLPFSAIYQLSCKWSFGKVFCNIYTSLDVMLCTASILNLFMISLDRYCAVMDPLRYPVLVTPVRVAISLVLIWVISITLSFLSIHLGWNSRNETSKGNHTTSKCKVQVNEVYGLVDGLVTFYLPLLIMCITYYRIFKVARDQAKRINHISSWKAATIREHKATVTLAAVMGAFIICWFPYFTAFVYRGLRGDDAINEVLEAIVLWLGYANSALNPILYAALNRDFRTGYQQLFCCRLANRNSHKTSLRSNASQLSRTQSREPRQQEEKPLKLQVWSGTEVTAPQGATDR
Procedure: To evaluate in radioligand binding assays the activity of compounds of the invention, human recombinant histamine H2 receptor expressed in Chinese hamster ovary (CHO) K1 cells (Ruat, M., Proc. Natl. Acad. Sci. USA. 87(5):1658, 1990) in a 50 mM Phosphate buffer, pH 7.4 was used. Compounds of the invention were incubated with 0.1 nM [^125I]Aminopotentidine for 120 minutes at 25° C. Non-specific binding was estimated in the presence of 3 μM Tiotidine. Receptor proteins were filtered and washed, the filters were then counted to determine [^125I]Aminopotentidine specifically bound. Compounds were screened at 1 μM or lower, using 1% DMSO as vehicle. Biochemical assay results are presented as the percent inhibition of specific binding in Table 3.

[2] = biological target: T2, human recombinant histamine H1 receptor (Homo sapiens, UniProt P35367); assay: Histamine H1 radioligand binding ([3H]Pyrilamine); conditions: 1 μM; read-out: Binding data (Percentage Inhibition) Histamine Binding (1 μM) H1
T2 construct: expressed in transfected cells; host or cells: CHO cells
T2 sequence (P35367 whole entry): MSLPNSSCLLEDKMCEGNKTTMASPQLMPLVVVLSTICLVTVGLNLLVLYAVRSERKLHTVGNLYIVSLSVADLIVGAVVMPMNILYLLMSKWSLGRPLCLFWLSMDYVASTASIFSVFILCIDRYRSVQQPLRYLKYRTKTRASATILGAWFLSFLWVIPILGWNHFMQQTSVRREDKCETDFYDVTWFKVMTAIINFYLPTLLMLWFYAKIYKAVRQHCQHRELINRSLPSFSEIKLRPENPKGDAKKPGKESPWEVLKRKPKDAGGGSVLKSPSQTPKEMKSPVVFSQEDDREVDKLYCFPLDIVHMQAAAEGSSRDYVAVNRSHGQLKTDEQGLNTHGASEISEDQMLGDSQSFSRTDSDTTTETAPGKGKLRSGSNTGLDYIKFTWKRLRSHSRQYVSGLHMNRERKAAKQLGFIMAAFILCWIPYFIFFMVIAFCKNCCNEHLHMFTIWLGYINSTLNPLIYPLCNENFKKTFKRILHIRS
Procedure: To evaluate in radioligand binding assays the activity of compounds of the invention, human recombinant histamine H1 receptor expressed in Chinese hamster ovary (CHO) cells (De Backer, M. D. et al., Biochem. Biophys. Res. Comm. 197(3):1601, 1993) in a modified Tris-HCl buffer (50 mM Tris-HCl, pH 7.4, 2 mM MgCl2, 100 mM NaCl, 250 mM Sucrose) was used. Compounds of the invention were incubated with 1.2 nM [^3H]Pyrilamine for 180 minutes at 25° C. Non-specific binding was estimated in the presence of 1 μM pyrilamine. Receptor proteins were filtered and washed, the filters were then counted to determine [^3H]Pyrilamine specifically bound. […] Biochemical assay results are presented as the percent inhibition of specific binding in Table 3.

[3] = biological target: T3, human recombinant serotonin (5-Hydroxytryptamine) 5-HT2A receptor (Homo sapiens, UniProt P28223); assay: Serotonin 5-HT2A radioligand binding ([3H]Ketanserin); conditions: 1 h; read-out: Percent Inhibition of ligand binding Serotonin (1 μM ligand concentration) 5-HT2A
T3 construct: expressed in transfected cells; host or cells: CHO-K1 cells
T3 sequence (P28223 whole entry): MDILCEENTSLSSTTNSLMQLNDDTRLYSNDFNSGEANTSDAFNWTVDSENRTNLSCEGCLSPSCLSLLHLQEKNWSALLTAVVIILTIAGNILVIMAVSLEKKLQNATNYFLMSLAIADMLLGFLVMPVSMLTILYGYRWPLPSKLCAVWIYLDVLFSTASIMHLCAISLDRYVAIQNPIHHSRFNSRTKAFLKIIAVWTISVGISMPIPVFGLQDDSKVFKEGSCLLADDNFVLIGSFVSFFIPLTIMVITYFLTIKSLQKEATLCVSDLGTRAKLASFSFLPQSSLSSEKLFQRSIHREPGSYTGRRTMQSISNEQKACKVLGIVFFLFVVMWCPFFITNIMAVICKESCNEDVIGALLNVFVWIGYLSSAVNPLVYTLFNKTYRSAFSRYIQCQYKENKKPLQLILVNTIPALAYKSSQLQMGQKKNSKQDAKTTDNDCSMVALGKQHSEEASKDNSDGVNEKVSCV
Procedure: To evaluate in radioligand binding assays the activity of compounds of the invention, human recombinant serotonin (5-Hydroxytryptamine) 5-HT2A receptor expressed in Chinese hamster ovary (CHO-K1) cells (Bonhaus, D. W. et al. Br. J. Pharmacol. 115:622, 1995; Saucier, C. and Albert, P. R., J. Neurochem. 68:1998, 1997) in a 50 mM Tris-HCl buffer, pH 7.4, was used. Compounds of the invention were incubated with 0.5 nM [^3H]Ketanserin for 60 minutes at 25° C. Non-specific binding was estimated in the presence of 1 μM Mianserin. Receptor proteins were filtered and washed, the filters were then counted to determine [^3H]Ketanserin specifically bound. Compounds were screened at 1 μM or lower, using 1% DMSO as vehicle. Biochemical assay results are presented as the percent inhibition of specific binding in Table 5.

[4] = biological target: T4, human recombinant dopamine D2L receptor (Homo sapiens, UniProt P14416); assay: Dopamine D2L radioligand binding ([3H]Spiperone); conditions: 2 h, 1 μM ligand conc.; read-out: Percent Inhibition of ligand binding Dopamine (1 μM ligand conc.) D2L
T4 construct: expressed in transfected cells; host or cells: CHO cells
T4 sequence (P14416 whole entry): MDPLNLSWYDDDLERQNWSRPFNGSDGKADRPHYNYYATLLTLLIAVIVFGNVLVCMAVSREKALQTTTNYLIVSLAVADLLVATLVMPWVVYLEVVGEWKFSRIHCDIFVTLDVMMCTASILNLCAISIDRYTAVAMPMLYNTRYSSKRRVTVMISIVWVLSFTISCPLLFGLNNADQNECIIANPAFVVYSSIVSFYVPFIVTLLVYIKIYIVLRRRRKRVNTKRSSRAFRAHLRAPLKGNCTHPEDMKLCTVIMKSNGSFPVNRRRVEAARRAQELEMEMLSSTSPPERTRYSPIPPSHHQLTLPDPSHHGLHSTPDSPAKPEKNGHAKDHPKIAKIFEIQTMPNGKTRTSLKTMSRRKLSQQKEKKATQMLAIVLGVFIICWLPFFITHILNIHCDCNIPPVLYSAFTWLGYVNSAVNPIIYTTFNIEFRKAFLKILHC
Procedure: To evaluate in radioligand binding assays the activity of compounds of the invention, human recombinant dopamine D2L receptor expressed in Chinese hamster ovary (CHO) cells (Grandy, D. K. et al. Proc. Natl. Acad. Sci. USA. 86:9762, 1989; Hayes, G. et al., Mol. Endocrinol. 6:920, 1992) in a modified Tris-HCl buffer (50 mM Tris-HCl, pH 7.4, 1.4 mM Ascorbic Acid, 0.001% BSA, 150 mM NaCl) was used. Compounds of the invention were incubated with 0.16 nM [^3H]Spiperone for 120 minutes at 25° C. Non-specific binding was estimated in the presence of […] Haloperidol. Receptor proteins were filtered and washed, the filters were then counted to determine [^3H]Spiperone specifically bound. Compounds were screened at 1 μM or lower, using 1% DMSO as vehicle. Biochemical assay results are presented as the percent inhibition of specific binding in Table 4.

[5] = biological target: T5, human recombinant serotonin (5-Hydroxytryptamine) 5-HT7 receptor (Homo sapiens, UniProt P34969); assay: Serotonin 5-HT7 radioligand binding ([3H]LSD); conditions: 2 h; read-out: Percent Inhibition of ligand binding Serotonin (1 μM ligand concentration) 5-HT7
T5 construct: expressed in transfected cells; host or cells: CHO cells
T5 sequence (P34969 whole entry): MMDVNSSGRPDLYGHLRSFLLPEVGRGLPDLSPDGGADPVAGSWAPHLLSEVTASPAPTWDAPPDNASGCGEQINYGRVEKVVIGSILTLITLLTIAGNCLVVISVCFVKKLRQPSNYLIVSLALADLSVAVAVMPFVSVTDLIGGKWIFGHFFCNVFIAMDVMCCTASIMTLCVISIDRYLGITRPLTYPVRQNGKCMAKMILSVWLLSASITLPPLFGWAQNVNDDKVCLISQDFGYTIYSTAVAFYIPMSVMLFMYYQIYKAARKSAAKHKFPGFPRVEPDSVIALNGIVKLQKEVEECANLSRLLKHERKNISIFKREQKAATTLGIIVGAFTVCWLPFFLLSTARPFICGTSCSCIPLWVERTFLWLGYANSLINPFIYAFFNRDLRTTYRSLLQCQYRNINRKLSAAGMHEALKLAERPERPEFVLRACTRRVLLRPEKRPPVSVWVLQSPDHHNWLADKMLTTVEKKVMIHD
Procedure: To evaluate in radioligand binding assays the activity of compounds of the invention, human recombinant serotonin (5-Hydroxytryptamine) 5-HT7 receptor expressed in Chinese hamster ovary (CHO) cells (Roth, B. L. et al., J. Pharmacol. Exp. Ther. 268:1403, 1994; Shen, Y. et al., J. Biol. Chem. 268:18200, 1993) in a modified Tris-HCl buffer (50 mM Tris-HCl, pH 7.4, 10 mM MgCl2, 0.5 mM EDTA) was used. Compounds of invention were incubated with 5.5 nM [^3H]Lysergic acid diethylamide (LSD) for 2 hours at 25° C. Non-specific binding was estimated in the presence of […] Serotonin (5-HT). Receptor proteins were filtered and washed, the filters were then counted to determine [^3H]LSD specifically bound. Compounds were screened at 1 μM or lower, using 1% DMSO as vehicle. Biochemical assay results are presented as the percent inhibition of specific binding in Table 5.

[6] = biological target: T6, human recombinant serotonin (5-Hydroxytryptamine) 5-HT2C receptor (Homo sapiens, UniProt P28335); assay: Serotonin 5-HT2C radioligand binding ([3H]Mesulergine); conditions: 1 h; read-out: Percent Inhibition of ligand binding Serotonin (1 μM ligand concentration) 5-HT2C
T6 construct: expressed in transfected cells; host or cells: CHO-K1 cells
T6 sequence (P28335 33-458): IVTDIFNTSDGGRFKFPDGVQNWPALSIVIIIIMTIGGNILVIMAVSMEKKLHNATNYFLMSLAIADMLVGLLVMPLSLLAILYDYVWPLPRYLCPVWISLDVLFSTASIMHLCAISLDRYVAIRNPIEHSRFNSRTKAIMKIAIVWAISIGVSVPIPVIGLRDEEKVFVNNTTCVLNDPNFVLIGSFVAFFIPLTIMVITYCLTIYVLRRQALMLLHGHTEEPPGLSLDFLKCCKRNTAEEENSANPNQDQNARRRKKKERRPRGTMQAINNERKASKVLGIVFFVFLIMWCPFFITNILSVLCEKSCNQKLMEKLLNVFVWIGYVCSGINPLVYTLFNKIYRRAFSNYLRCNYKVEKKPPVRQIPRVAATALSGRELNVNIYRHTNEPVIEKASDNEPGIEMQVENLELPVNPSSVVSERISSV
Procedure: Compounds of the invention were incubated with 1 nM [^3H]Mesulergine for 60 minutes at 25° C. Non-specific binding was estimated in the presence of 1 μM Mianserin. Receptor proteins were filtered and washed, the filters were then counted to determine [^3H]Mesulergine specifically bound. […] Biochemical assay results are presented as the percent inhibition of specific binding in Table 5.

[7] = biological target: T7, human recombinant serotonin (5-Hydroxytryptamine) 5-HT6 receptor (Homo sapiens, UniProt P50406); assay: Serotonin 5-HT6 radioligand binding ([3H]LSD); conditions: 2 h; read-out: Percent Inhibition of ligand binding Serotonin (1 μM ligand concentration) 5-HT6
T7 construct: expressed in transfected cells; host or cells: human HeLa cells
T7 sequence (P50406 whole entry): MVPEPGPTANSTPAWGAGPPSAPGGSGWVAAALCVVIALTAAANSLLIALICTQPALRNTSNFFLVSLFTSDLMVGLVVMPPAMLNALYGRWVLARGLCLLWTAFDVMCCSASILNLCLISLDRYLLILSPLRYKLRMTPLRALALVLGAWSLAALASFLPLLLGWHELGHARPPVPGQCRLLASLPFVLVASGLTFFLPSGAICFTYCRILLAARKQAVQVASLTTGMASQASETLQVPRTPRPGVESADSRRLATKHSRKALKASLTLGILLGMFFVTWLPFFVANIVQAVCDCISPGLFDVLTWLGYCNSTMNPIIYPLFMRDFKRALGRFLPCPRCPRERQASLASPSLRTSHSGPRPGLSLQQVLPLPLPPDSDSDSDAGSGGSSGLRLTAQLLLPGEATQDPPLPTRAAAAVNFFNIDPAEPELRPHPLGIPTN
Procedure: To evaluate in radioligand binding assays the activity of compounds of the invention, human recombinant serotonin (5-Hydroxytryptamine) 5-HT6 receptor expressed in human HeLa cells (Monsma, F. J. Jr. et al., Mol. Pharmacol. 43:320, 1993) in a modified Tris-HCl buffer (50 mM Tris-HCl, pH 7.4, 150 mM NaCl, 2 mM Ascorbic Acid, 0.001% BSA) was used. Compounds of the invention were incubated with 1.5 nM [3H]Lysergic acid diethylamide (LSD) for 120 minutes at 37° C. Non-specific binding was estimated in the presence of […] Serotonin (5-HT). Receptor proteins were filtered and washed, the filters were then counted to determine [3H]LSD specifically bound. Compounds were screened at 1 μM or lower, using 1% DMSO as vehicle. Biochemical assay results are presented as the percent inhibition of specific binding in Table 5.

Structure (SMILES) | inhibition at 1 µM [1] [%] | inhibition at 1 µM [2] [%] | inhibition at 1 µM [3] [%] | inhibition at 1 µM [4] [%] | inhibition at 1 µM [5] [%] | inhibition at 1 µM [6] [%] | inhibition at 1 µM [7] [%]
CCC1c2c(c3cc(Cl)ccc3n2/C=C(\C)c2cccnc2)CCN1C (stereo not shown) [Compound 108] | 12 | 30 | 45 | -4 | 62 | 60 | 6
C/C(=C\n1c2c(c3cc(C)ccc31)CCN(C)C2)c1ccc(F)c(F)c1 [Compound 109, 9-(2-(3,4-difluorophenyl)prop-1-enyl)-2,6-dimethyl-2,3,4,9-tetrahydro-1H-pyrido[3,4-b]indole] | 67 | 20 | 96 | 12 | 96 | 97 | 72
C/C(=C\n1c2c(c3cc(Cl)ccc31)CCN(C)C2)c1ccc(F)c(F)c1 [Compound 110, 6-chloro-9-(2-(3,4-difluorophenyl)prop-1-enyl)-2-methyl-2,3,4,9-tetrahydro-1H-pyrido[3,4-b]indole] | 64 | 25 | 93 | 10 | 87 | 97 | 73
C/C(=C\n1c2c(c3cc(Cl)ccc31)CCN(C)C2C)c1ccc(F)c(F)c1 (stereo not shown) [Compound 111, 6-chloro-9-(2-(3,4-difluorophenyl)prop-1-enyl)-1,2-dimethyl-2,3,4,9-tetrahydro-1H-pyrido[3,4-b]indole] | 61 | 60 | 79 | 5 | 78 | 93 | 88
CCC1c2c(c3cc(Cl)ccc3n2/C=C(\C)c2ccc(F)c(F)c2)CCN1C (stereo not shown) [Compound 112, 6-chloro-9-(2-(3,4-difluorophenyl)prop-1-enyl)-1-ethyl-2-methyl-2,3,4,9-tetrahydro-1H-pyrido[3,4-b]indole] | 38 | 33 | 82 | 12 | 67 | 94 | 61
C/C(=C\n1c2c(c3cc(C)ccc31)CCN(C)C2)c1ccc(Cl)c(Cl)c1 [Compound 113, 9-(2-(3,4-dichlorophenyl)prop-1-enyl)-2,6-dimethyl-2,3,4,9-tetrahydro-1H-pyrido[3,4-b]indole] | 81 | 26 | 99 | 9 | 84 | 91 | 49
C/C(=C\n1c2c(c3cc(Cl)ccc31)CCN(C)C2)c1ccc(Cl)c(Cl)c1 [Compound 114, 6-chloro-9-(2-(3,4-dichlorophenyl)prop-1-enyl)-2-methyl-2,3,4,9-tetrahydro-1H-pyrido[3,4-b]indole] | 75 | 30 | 93 | 8 | 87 | 95 | 42
C/C(=C\n1c2c(c3cc(Cl)ccc31)CCN(C)C2C)c1ccc(Cl)c(Cl)c1 (stereo not shown) [Compound 115, 6-chloro-9-(2-(3,4-dichlorophenyl)prop-1-enyl)-1,2-dimethyl-2,3,4,9-tetrahydro-1H-pyrido[3,4-b]indole] | 71 | 50 | 85 | 0 | 74 | 86 | 40
CCC1c2c(c3cc(Cl)ccc3n2/C=C(\C)c2ccc(Cl)c(Cl)c2)CCN1C (stereo not shown) [Compound 116, 6-chloro-9-(2-(3,4-dichlorophenyl)prop-1-enyl)-1-ethyl-2-methyl-2,3,4,9-tetrahydro-1H-pyrido[3,4-b]indole] | 50 | 8 | 83 | 0 | 51 | 85 | 38
COc1ccc(/C(C)=C/n2c3c(c4cc(C)ccc42)CCN(C)C3)cc1F [Compound 121, 9-(2-(3-fluoro-4-methoxyphenyl)prop-1-enyl)-2,6-dimethyl-2,3,4,9-tetrahydro-1H-pyrido[3,4-b]indole] | 50 | 9 | 96 | 21 | 94 | 102 | 33
